From patent publication US20220184058A1, “PHARMACEUTICAL COMPOSITION FOR TREATING AORTIC ANEURYSM” (National University Corporation Hamamatsu University School …, priority 2019, published 2022)

Tested on: aortic wall hypoxia-induced rat AAA model
Experiment: Aortic wall hypoxia-induced rat AAA model: non-rupture survival / mortality due to rupture
Assay type: in vivo
Conditions: day of operation to Day 28 post operation, versus control group; trend toward improvement in survival rate
Source text: The action of Compound 1 and pitavastatin in rat AAA models (Non-Patent Document 3) induced by operation were examined. In the operation, the aortic wall of each model was separated from the surrounding tissues. After a catheter was inserted, the abdominal aorta was ligated together with a catheter with a thread was studied.
In the test, Compound 1 was manufactured according to the method disclosed in Patent Document 1 and mixed, in a proportion of 0.15%, with a normal diet (FR2, manufactured by Funabashi Farm Co., Ltd.), and the Compound 1-mixed diet was used. In regard to pitavastatin, 0.003% of pitavastatin calcium was mixed with a normal diet(FR2, manufactured by Funabashi Farm Co., Ltd.) and the pitavastatin-mixed diet was used.
Sprague-Dawley male rats (300 to 350 g: Japan SLC, Inc.) were used in the experiment. The rats were reared at room temperature of 25° C.±1° C., and allowed to freely take the feed and water.
The model was created according to the method disclosed in Non-Patent Document 3. Specifically, a rat AAA model was created by separating the rat aortic wall from the surrounding tissue, inserting a polyurethane catheter, and then ligating the abdominal aorta together with a plastic catheter with a monofilament thread, and inducing AAA. […]
In each group, up to 28 days post operation, the aneurysm diameter was measured by echo and comparison in survival was made. […]

Structure (SMILES): O=C(NCCCOc1ccc2[nH]c(=O)ccc2c1)N(C1CC1)[C@@H]1CCCC[C@H]1O [Compound 1, (−)-6-[3-[3-cyclopropyl-3-[(1R,2R)-2-hydroxycyclohexyl]ureido]propoxy]-2(1H)-quinolinone]
- mortality rates due to rupture: lower than that in the control group
